Results: the supplement of paper PMC11962398

Key:
[1] = compound: T1, C[C@H]1CNCCN1c1nccc(-c2noc3c2CCC[C@@]32CCCc3sc(N)c(C#N)c32)n1 [BI-2493]; assay: 1 - AUC of viability dose-response curve (sensitivity) (fraction); higher = more sensitive; conditions: 5 days
Protocol: (§1)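 PRISM pooled barcoded cancer cell line viability screen (Broad Institute) with BI-2493 at 8 doses in threefold dilutions from 0.00457 to 10 µmol/L, 5-day treatment; curves fitted per cell line. IC50 is undefined (placeholder) for resistant lines. AUC is capped at 1, and sensitivity is reported as 1 − AUC.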

[2] = compound: T1, BI-2493; conditions: 5 days
Protocol: as §1

| Test System | 1 - AUC of viability dose-response curve [1] | IC50 of cell viability [2] [µM] |
| --- | --- | --- |
| RI1_HAEMATOPOIETIC_AND_LYMPHOID_TISSUE | 0.106 | 6.4 |
| RKO_LARGE_INTESTINE | 0.0968 | 7.43 |
| RL952_ENDOMETRIUM | 0.108 | 3.87 |
| RL_HAEMATOPOIETIC_AND_LYMPHOID_TISSUE | 0.0967 | 4.21 |
| RMGI_OVARY | 0.0414 | 9.09 |
| RMSYM_SOFT_TISSUE | 0.119 | 6.04 |
| RMUGS_OVARY | 0.122 | 5.26 |
| RO82W1_THYROID | 0.123 | 5.35 |
| RPMI7951_SKIN | 0.0692 | 6.06 |
| RPMI8402_HAEMATOPOIETIC_AND_LYMPHOID_TISSUE | 0.0899 | 6.85 |
| RT4_URINARY_TRACT | 0.147 | 5.51 |
| RT112_URINARY_TRACT | 0.281 | 1.22 |
| RVH421_SKIN | 0.133 | 5.43 |
| S117_THYROID | 0.0998 | 4.21 |
| SAOS2_BONE | 0.0212 | 9.58 |
| SBC5_LUNG | 0.122 | 5.31 |
| SCC3_HAEMATOPOIETIC_AND_LYMPHOID_TISSUE | 0.0243 | 8.83 |
| SCC9_UPPER_AERODIGESTIVE_TRACT | 0.11 | 6.27 |
| SCC25_UPPER_AERODIGESTIVE_TRACT | 0.128 | 5.3 |
| SCLC21H_LUNG | 0.0414 | 7.84 |
| SF126_CENTRAL_NERVOUS_SYSTEM | 0.0902 | 4.43 |
| SF295_CENTRAL_NERVOUS_SYSTEM | 0.0199 | 9.02 |
| SF539_CENTRAL_NERVOUS_SYSTEM | 0.173 | 9.12 |
| SG231_BILIARY_TRACT | 0.286 | 2.09 |
| SH4_SKIN | 0.0518 | 6.75 |
| SH10TC_STOMACH | 0.125 | 4.52 |

| Test System | 1 - AUC of viability dose-response curve [1] | IC50 of cell viability [2] [µM] |
| --- | --- | --- |
| SHMAC5_PROSTATE | 0.118 | 3.3 |
| SIMA_AUTONOMIC_GANGLIA | 0.159 | > 10 |
| SJSA1_BONE | 0.095 | 7.93 |
| SKES1_BONE | 0.128 | 6.06 |
| SKGII_ENDOMETRIUM | 0.0529 | 8.23 |
| SKGI_ENDOMETRIUM | 0.142 | 4.89 |
| SKGT2_STOMACH | 0.00814 | 9.72 |
| SKGT4_OESOPHAGUS | 0.403 | 0.494 |
| SKLMS1_SOFT_TISSUE | 0.0071 | 9.65 |
| SKLU1_LUNG | 0.329 | 1 |
| SKM1_HAEMATOPOIETIC_AND_LYMPHOID_TISSUE | 0.446 | 0.316 |
| SKMEL2_SKIN | 0.0065 | 9.59 |
| SKMEL5_SKIN | 0.0596 | 7.01 |
| SKMEL24_SKIN | 0.157 | 9.18 |
| SKMEL28_SKIN | 0.217 | 4.05 |
| SKMEL30_SKIN | 0.0152 | 9.15 |
| SKMES1_LUNG | 0.0245 | 8.98 |
| SKNAS_AUTONOMIC_GANGLIA | 0.086 | 4.32 |
| SKNBE2_AUTONOMIC_GANGLIA | 0.206 | 4.48 |
| SKNDZ_AUTONOMIC_GANGLIA | 0.012 | 9.28 |
| SKNFI_AUTONOMIC_GANGLIA | 0.112 | 5.39 |
| SKNMC_BONE | 0.193 | 7.83 |
| SKNSH_AUTONOMIC_GANGLIA | 0.25 | > 10 |
| SKN_ENDOMETRIUM | 0.101 | 6.7 |
| SKOV3_OVARY | 0.0812 | 7.06 |
| SKPNDW_BONE | 0.0174 | 9.05 |

| Test System | 1 - AUC of viability dose-response curve [1] | IC50 of cell viability [2] [µM] |
| --- | --- | --- |
| SKUT1_SOFT_TISSUE | 0.207 | 4.83 |
| SMSCTR_SOFT_TISSUE | 0.0341 | > 10 |
| SNGM_ENDOMETRIUM | 0.0648 | 7.12 |
| SNU1_STOMACH | 0.102 | 5.53 |
| SNU46_UPPER_AERODIGESTIVE_TRACT | 0.192 | 5.4 |
| SNU61_LARGE_INTESTINE | 0.307 | 0.465 |
| SNU81_LARGE_INTESTINE | 0.129 | 9.39 |
| SNU119_OVARY | 0.162 | 5.65 |
| SNU182_LIVER | 0.0527 | > 10 |
| SNU201_CENTRAL_NERVOUS_SYSTEM | 0.0868 | > 10 |
| SNU213_PANCREAS | 0.106 | 5.63 |
| SNU216_STOMACH | 0.0735 | 8.63 |
| SNU245_BILIARY_TRACT | 0.381 | 0.731 |
| SNU308_BILIARY_TRACT | 0.0812 | 8.63 |
| SNU398_LIVER | 0.176 | 3.55 |
| SNU407_LARGE_INTESTINE | 0.3 | 1.21 |
| SNU410_PANCREAS | 0.0692 | 9.47 |
| SNU423_LIVER | 0.152 | 3.81 |
| SNU449_LIVER | 0.0578 | 7.3 |
| SNU466_CENTRAL_NERVOUS_SYSTEM | 0.218 | 2.75 |
| SNU489_CENTRAL_NERVOUS_SYSTEM | 0.103 | 4.14 |
| SNU638_STOMACH | 0.119 | 8.32 |
| SNU668_STOMACH | 0.234 | 6.46 |
| SNU685_ENDOMETRIUM | 0.0102 | 9.5 |
